The subject of the assay is M. tuberculosis H37Rv growth inhibition. The assay is described as follows: M. tuberculosis H37Rv growth inhibitors, H37Rv strain (AID 1626). The conditions noted are these: for IC90: measured here: IC90 against H37Rv; for CC50: measured here: Vero cell cytotoxicity.

The values that follow come from PubChem BioAssay AID1626 (SRMLSC, 2009).

pIC50: −log10 of the molar value.

The term pIC50 denotes the negative decadic logarithm of the IC50, by convention in mol/L. The IC90 is the concentration needed for an effect of 90%. Lower therefore signals greater potency. As a reminder, the CC50 is the concentration that lowers cell viability or growth by half. A lower CC50 goes with greater toxicity to the cells.

As for `Oc1ccc2ccccc2c1CNc1cnc2ccccc2c1`, the pIC50 was 5.85 and the concentration for an effect of 90% (IC90) is above 100 µM.
For `CC(C)c1ccc(CNc2nc3nc4c(c(=O)n3[nH]2)CCC4)cc1` the same measures were 6.33 and above 100 µM.
For `CCN(CC)CCC(c1ccc2c(c1)OCO2)c1c(OC)cc(OC)c2c(-c3ccccc3)cc(=O)oc12` (centres undefined), the pIC50 was 4.87, the IC90 was 21.3 µM and the CC50 was 16.5 µM.
For the compound `Cc1cc(C)nc(-n2nc(C)cc2Nc2ccccc2)n1`, the pIC50 was 5.49, the IC90 came to 13.6 µM and the CC50 was above 40 µM.
Regarding `C=CCn1c(O)c(C(CC)=Nc2ccc3c(c2)CCC3)c(=O)[nH]c1=O`, the pIC50 was 4.75 and the IC90 is above 100 µM.
For `COc1ccc(C(=O)OCCNC(=O)c2c(Cl)nc3ccccn23)cc1` the same measures were 5.29 and 15.8 µM.
As to `COc1cccc(-c2nc(-c3ccccc3)nc(N3CCN(C)CC3)c2C#N)c1`, the negative-log IC50 (pIC50) was 5.06, the IC90 came to 12.4 µM and the CC50 turned out to be 26.7 µM.
Compound `CCOC(=O)c1ccc(NC(=O)Cn2cccc2)cc1` registered an IC90 above 100 µM.
For `CCCc1nnc(NC(=O)c2c(O)c3cccc4c3n(c2=O)CCC4)s1`, the negative logarithm of the IC50 (pIC50) is above 6.41, the 90% effect concentration (IC90) is below 0.391 µM and the CC50 was 25.6 µM.
The matching figures for `O=c1c(O)c(-c2cccs2)oc2ccc(Cl)cc12`: 5.02, above 100 µM and above 40 µM.
The matching figures for `O=C(Nc1nc(-c2ccccn2)cs1)c1cc(Cl)ccc1[N+](=O)[O-]`: 6.06, 2.24 µM and 2.24 µM.
As to `COc1cc(N=C2C(=O)N3c4c(cccc42)C(C)=CC3(C)C)cc(OC)c1`, the pIC50 was 4.33 and the IC90 was above 100 µM.
As to `COc1cc(CNc2ccc(N3CCN(C(C)=O)CC3)cc2)ccc1OCc1ccc(F)cc1`, the CC50 was above 40 µM.
`CN1CCN(C2=Cc3ccc(Cl)cc3Sc3ccc(F)cc32)CC1`: the pIC50 is 4.96, the IC90 was found to be 12.3 µM and the CC50 was 33.9 µM.
For `O=[N+]([O-])c1ccc(/C=N/n2c(CO)nc3ccccc32)s1` the same measures were 6.28, 1.1 µM and above 40 µM.
Turning to `Cc1ccc2nc(Cl)c(CNCc3ccccc3)cc2c1`, the pIC50 is 5.25 and the 90% effect concentration (IC90) is 14.1 µM.
In the case of `Cc1ccc(Sc2cc(C)nc(-c3ccccn3)n2)cc1`, the pIC50 is 5.65, the IC90 was 15.7 µM and the CC50 amounted to 10.8 µM.
On to `O=c1[nH]c(-c2ccccn2)nc2sc(-c3ccccc3)cc12`, for which the pIC50 is above 6.41, the IC90 is 0.553 µM and the CC50 is 2.2 µM.
For `CN=C(Nc1cc(Cl)ccc1Cl)SC1CC(=O)N(c2ccc(C(=O)OC)cc2)C1=O` (centres undefined) the same measures were 4.60, above 100 µM and above 40 µM.
Consider `CCn1cc(C(=O)O)c(=O)c2cc(F)c(N3CCNCC3)cc21`, for which the pIC50 is 5.55 and the IC90 came to 3.11 µM.
For the compound `CCCCn1c(NC(=O)C2CCCCC2)nc2ccccc21`, the pIC50 was 6.06, the IC90 was above 100 µM and the CC50 came to 35 µM.
The matching figures for `Cc1ccc2c(c1)c1c(n2CC(O)CNC2CCCCC2)CCCC1` (centres undefined): 5.17, 10.2 µM and 15.1 µM.
For the compound `CCOC(=O)C(C)Sc1ncc(-c2ccc(Cl)cc2)cn1` (centres undefined), the pIC50 is 5.57 and the IC90 is 5.04 µM.
The matching figures for `CC(=O)CC(=O)Nc1ccc2ccccc2c1`: 4.87 and above 100 µM.
On to `COc1ccc(NC2(c3ccc(Cl)cc3)C(=O)c3ccccc3C2=O)cc1`, for which the IC90 is above 100 µM.
Regarding `CCN1CCN(c2cc3c(cc2F)c(=O)c(C(=O)O)cn3C2CC2)CC1`, the pIC50 was above 6.41 and the IC90 was below 0.391 µM.
Take `O=C(NCc1cccnc1)/C(=C/c1ccc(-c2ccc(Cl)cc2)o1)S(=O)(=O)c1ccccc1`: the pIC50 is 5.41, the IC90 amounted to 29.7 µM and the CC50 was determined as 24 µM.
For `CCCc1cc(NCc2ccccn2)n2nc(C)c(-c3ccccc3)c2n1` the same measures were 5.36, 7.09 µM and above 40 µM.
The matching figures for `NS(=O)(=O)c1ccc(CCNc2ncnc3c2c(-c2ccccc2)cn3-c2ccc(F)cc2)cc1`: 5.24, 6.76 µM and above 40 µM.
For `COc1ccc(NC(=O)c2ccc(OC(F)F)cc2)cc1Cl`, the pIC50 is 4.68 and the IC90 was above 100 µM.
On to `CCOC(=O)c1cn[nH]c1N`, for which the IC90 is above 100 µM.
On to `CCOc1ccc(N=Cc2c(O)n(-c3ccc(C)c(C)c3)c(=O)[nH]c2=O)cc1`, for which the pIC50 was above 6.71 and the IC90 was above 100 µM.
For `CCCCOC(=O)Cn1c(-c2ccccc2)nc2ccccc2c1=O` the same measures were 5.11 and 18.5 µM.
Consider `Cn1c(O)c(C(=Nc2ccccc2)SCc2ccccc2Cl)c(=O)n(C)c1=O`, for which the pIC50 was 5.65, the IC90 amounted to 2.76 µM and the CC50 was 22.7 µM.
For `COc1cc(OC)c2c(-c3ccccc3)cc(=O)oc2c1C(CCN1CCCCC1)c1ccc(N(C)C)cc1` (centres undefined) the same measures were 5.06, 12.1 µM and 20.4 µM.
For `CCCCc1c(C)c(C#N)c2nc3ccccc3n2c1Cl` the same measures were 5.00, above 100 µM and 5.35 µM.
The compound `Cc1cc(=O)[nH]c(SCC(=O)C23CC4CC(CC(C4)C2)C3)c1C#N` returned an IC90 above 100 µM and a half-maximal cytotoxic concentration (CC50) of 21.2 µM.
Regarding `COC(=O)c1ccc(C(=O)OC)c(NC(=O)CN2CCN(c3ccccc3)CC2)c1`, the pIC50 is 4.18, the IC90 was above 100 µM and the CC50 was above 40 µM.
On to `O=c1oc2ccccc2nc1/C=C(\O)c1ccccc1`, for which the pIC50 is 5.18 and the IC90 is above 100 µM.
Regarding `CCOC(=O)c1cnc(-n2nc(C)cc2C)nc1Nc1ccc(N(C)C)cc1`, the pIC50 is above 6.71, the IC90 is below 0.195 µM and the CC50 is 23.9 µM.
Turning to `c1ccc(OCc2nn3c(-c4n[nH]c5c4CCC5)nnc3s2)cc1`, the negative-log IC50 (pIC50) was 5.91 and the IC90 came out at 6.8 µM.
For `CCOC(=O)c1ccc(NC(=O)CN2C(=O)C(=O)N(CC(C)C)C2=O)cc1` the same measures were above 6.71 and above 100 µM.
The matching figures for `CCc1cc2cc(C(=O)Nc3ccc(F)cc3)sc2s1`: 6.29 and 0.79 µM.
As for `c1ccc(-c2oc3ncnc(NCCCn4ccnc4)c3c2-c2ccccc2)cc1`, the pIC50 was 5.14, the IC90 came out at 16.4 µM and the CC50 is 23.6 µM.
With `CC(C)OC(=O)CSc1ncnc2c1cnn2Cc1ccccc1`, the pIC50 was 5.09 and the concentration for an effect of 90% (IC90) was determined as 19 µM.
For the compound `Cc1cc(C(=O)c2ccc(C(C)(C)C)cc2)c(NC(=O)CCl)s1`, the pIC50 is 4.71, the IC90 was above 100 µM and the CC50 is 27.2 µM.
Turning to `O=C(COC(=O)Cc1ccccc1F)Nc1ccc2c(c1)OCO2`, the IC90 was above 100 µM.
In the case of `Cc1c(Cc2ccccc2)c(NCCCO)n2c(nc3ccccc32)c1C#N`, the pIC50 was 5.54 and the IC90 is 3.35 µM.
